Data on 13 molecules can be found in patent publication US12391648B2, “Pyridyloxy thioester derivative and preparation method therefor, herbicidal composition, and application” (Qingdao Kingagroot Chemical Compound Co., Ltd., priority 2018, dated 2025).

Assay in all cases: Post-emergence test experiment (Table 3, 1000 g/ha)
Holding throughout (type): in vivo
What all share (details): post-emergence spray, after 3 weeks, fresh weight inhibition

Assay [1] deals with Abutilon theophrasti. The method in brief: (§1)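 Activity graded levels 0-5 by fresh-weight inhibition (level 5 above 85%, level 0 below 5%), assessed 3 weeks after treatment. Plants grown in greenhouse pots were sprayed post-emergence at 2-3 leaves using acetone/tween-80 solutions with methyl oleate synergist (1.5 L/ha).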
In assay [2] the test system is Digitaria sanguinalis. The essentials:
as §1

Assay [3] concerns Galium spurium. The method in brief: as §1
Assay [4] relates to Leptochloa chinensis. The essentials: as §1
Assay [5] relates to Monochoria vaginalis. The essentials: as §1
The subject of assay [6] is Setaria viridis. The essentials: as §1

As for `CC(Oc1nc(F)c(Cl)c(N)c1Cl)C(=O)SC(F)(F)F` (stereo not drawn) [Compound 75], the “Activity level (growth inhibition rate) Abutilon theophrasti” value in assay [1] is 5 (Level 5: the growth inhibition rate is greater than 85%). The “Activity level (growth inhibition rate) Digitaria sanguinalis” value in assay [2] is reported as 5 (Level 5: the growth inhibition rate is greater than 85%). The “Activity level (growth inhibition rate) Galium spurium” value in assay [3] is listed as 5 (Level 5: the growth inhibition rate is greater than 85%). In assay [4], the “Activity level (growth inhibition rate) Leptochloa chinensis” value is 5 (Level 5: the growth inhibition rate is greater than 85%). Also, in assay [5], the “Activity level (growth inhibition rate) Monochoria Vaginalis” value is on record as 5 (Level 5: the growth inhibition rate is greater than 85%). Also, in assay [6], the “Activity level (growth inhibition rate) Setaria viridis” value is recorded as 5 (Level 5: the growth inhibition rate is greater than 85%).

For `CC(Oc1nc(F)c(Cl)c(N)c1Cl)C(=O)SC(F)(F)C(F)(F)F` (stereo not drawn) [Compound 76], the “Activity level (growth inhibition rate) Abutilon theophrasti” value in assay [1] was 5 (Level 5: the growth inhibition rate is greater than 85%). In addition, the “Activity level (growth inhibition rate) Digitaria sanguinalis” value in assay [2] is 5 (Level 5: the growth inhibition rate is greater than 85%). Besides, the “Activity level (growth inhibition rate) Galium spurium” value in assay [3] is 5 (Level 5: the growth inhibition rate is greater than 85%). For the same molecule, the “Activity level (growth inhibition rate) Leptochloa chinensis” value in assay [4] was 5 (Level 5: the growth inhibition rate is greater than 85%). Besides, the “Activity level (growth inhibition rate) Monochoria Vaginalis” value in assay [5] is 5 (Level 5: the growth inhibition rate is greater than 85%). The “Activity level (growth inhibition rate) Setaria viridis” value in assay [6] is reported as 5 (Level 5: the growth inhibition rate is greater than 85%).

For `CC(Oc1nc(F)c(Cl)c(N)c1Cl)C(=O)SCC(F)(F)F` (stereo not drawn) [Compound 78], the “Activity level (growth inhibition rate) Abutilon theophrasti” value in assay [1] is on record as 5 (Level 5: the growth inhibition rate is greater than 85%). Also, the “Activity level (growth inhibition rate) Digitaria sanguinalis” value in assay [2] is recorded as 5 (Level 5: the growth inhibition rate is greater than 85%). Also, the “Activity level (growth inhibition rate) Galium spurium” value in assay [3] is reported as 5 (Level 5: the growth inhibition rate is greater than 85%). In addition, in assay [4], the “Activity level (growth inhibition rate) Leptochloa chinensis” value is 5 (Level 5: the growth inhibition rate is greater than 85%). In assay [5], the “Activity level (growth inhibition rate) Monochoria Vaginalis” value is listed as 5 (Level 5: the growth inhibition rate is greater than 85%). For the same molecule, the “Activity level (growth inhibition rate) Setaria viridis” value in assay [6] is listed as 5 (Level 5: the growth inhibition rate is greater than 85%).

`CC(Oc1nc(F)c(Cl)c(N)c1Cl)C(=O)SCC(F)(F)C(F)(F)F` (stereo not drawn) [Compound 80]: the “Activity level (growth inhibition rate) Abutilon theophrasti” value in assay [1] is reported as 5 (Level 5: the growth inhibition rate is greater than 85%). In addition, in assay [2], the “Activity level (growth inhibition rate) Digitaria sanguinalis” value was 5 (Level 5: the growth inhibition rate is greater than 85%). Also, the “Activity level (growth inhibition rate) Galium spurium” value in assay [3] is 5 (Level 5: the growth inhibition rate is greater than 85%). Besides, in assay [4], the “Activity level (growth inhibition rate) Leptochloa chinensis” value was 5 (Level 5: the growth inhibition rate is greater than 85%). Besides, in assay [5], the “Activity level (growth inhibition rate) Monochoria Vaginalis” value is on record as 5 (Level 5: the growth inhibition rate is greater than 85%). The “Activity level (growth inhibition rate) Setaria viridis” value in assay [6] is given as 5 (Level 5: the growth inhibition rate is greater than 85%).

Take `CC(Oc1nc(F)c(Cl)c(N)c1Cl)C(=O)SC1CC1` (stereo not drawn) [Compound 81]: the “Activity level (growth inhibition rate) Abutilon theophrasti” value in assay [1] is 5 (Level 5: the growth inhibition rate is greater than 85%). For the same molecule, the “Activity level (growth inhibition rate) Digitaria sanguinalis” value in assay [2] was 5 (Level 5: the growth inhibition rate is greater than 85%). For the same molecule, in assay [3], the “Activity level (growth inhibition rate) Galium spurium” value was 5 (Level 5: the growth inhibition rate is greater than 85%). Further, the “Activity level (growth inhibition rate) Leptochloa chinensis” value in assay [4] is 5 (Level 5: the growth inhibition rate is greater than 85%). Further, in assay [5], the “Activity level (growth inhibition rate) Monochoria Vaginalis” value is reported as 5 (Level 5: the growth inhibition rate is greater than 85%). Moreover, in assay [6], the “Activity level (growth inhibition rate) Setaria viridis” value is recorded as 5 (Level 5: the growth inhibition rate is greater than 85%).

`COSC(=O)C(C)Oc1nc(F)c(Cl)c(N)c1Cl` (stereo not drawn) [Compound 83]: in assay [1], the “Activity level (growth inhibition rate) Abutilon theophrasti” value is reported as 5 (Level 5: the growth inhibition rate is greater than 85%). Further, the “Activity level (growth inhibition rate) Digitaria sanguinalis” value in assay [2] is reported as 5 (Level 5: the growth inhibition rate is greater than 85%). The “Activity level (growth inhibition rate) Galium spurium” value in assay [3] is recorded as 5 (Level 5: the growth inhibition rate is greater than 85%). In assay [4], the “Activity level (growth inhibition rate) Leptochloa chinensis” value was 5 (Level 5: the growth inhibition rate is greater than 85%). Besides, the “Activity level (growth inhibition rate) Monochoria Vaginalis” value in assay [5] is 5 (Level 5: the growth inhibition rate is greater than 85%). In addition, in assay [6], the “Activity level (growth inhibition rate) Setaria viridis” value is given as 5 (Level 5: the growth inhibition rate is greater than 85%).

Consider `COCCSC(=O)C(C)Oc1nc(F)c(Cl)c(N)c1Cl` (stereo not drawn) [Compound 85], for which, in assay [1], the “Activity level (growth inhibition rate) Abutilon theophrasti” value is recorded as 5 (Level 5: the growth inhibition rate is greater than 85%). Further, the “Activity level (growth inhibition rate) Digitaria sanguinalis” value in assay [2] is on record as 5 (Level 5: the growth inhibition rate is greater than 85%). The “Activity level (growth inhibition rate) Galium spurium” value in assay [3] is on record as 5 (Level 5: the growth inhibition rate is greater than 85%). For the same molecule, the “Activity level (growth inhibition rate) Leptochloa chinensis” value in assay [4] was 5 (Level 5: the growth inhibition rate is greater than 85%). The “Activity level (growth inhibition rate) Monochoria Vaginalis” value in assay [5] is 5 (Level 5: the growth inhibition rate is greater than 85%). The “Activity level (growth inhibition rate) Setaria viridis” value in assay [6] is reported as 5 (Level 5: the growth inhibition rate is greater than 85%).

`CCOCSC(=O)C(C)Oc1nc(F)c(Cl)c(N)c1Cl` (stereo not drawn) [Compound 86]: the “Activity level (growth inhibition rate) Abutilon theophrasti” value in assay [1] is reported as 5 (Level 5: the growth inhibition rate is greater than 85%). The “Activity level (growth inhibition rate) Digitaria sanguinalis” value in assay [2] is on record as 5 (Level 5: the growth inhibition rate is greater than 85%). Also, the “Activity level (growth inhibition rate) Galium spurium” value in assay [3] is listed as 5 (Level 5: the growth inhibition rate is greater than 85%). The “Activity level (growth inhibition rate) Leptochloa chinensis” value in assay [4] was 5 (Level 5: the growth inhibition rate is greater than 85%). Further, in assay [5], the “Activity level (growth inhibition rate) Monochoria Vaginalis” value is 5 (Level 5: the growth inhibition rate is greater than 85%). In assay [6], the “Activity level (growth inhibition rate) Setaria viridis” value is on record as 5 (Level 5: the growth inhibition rate is greater than 85%).

On to `C=CCSC(=O)C(C)Oc1nc(F)c(Cl)c(N)c1Cl` (stereo not drawn) [Compound 89], for which the “Activity level (growth inhibition rate) Abutilon theophrasti” value in assay [1] is 5 (Level 5: the growth inhibition rate is greater than 85%). Besides, the “Activity level (growth inhibition rate) Digitaria sanguinalis” value in assay [2] is given as 5 (Level 5: the growth inhibition rate is greater than 85%). The “Activity level (growth inhibition rate) Galium spurium” value in assay [3] was 5 (Level 5: the growth inhibition rate is greater than 85%). Also, the “Activity level (growth inhibition rate) Leptochloa chinensis” value in assay [4] is 5 (Level 5: the growth inhibition rate is greater than 85%). The “Activity level (growth inhibition rate) Monochoria Vaginalis” value in assay [5] is reported as 5 (Level 5: the growth inhibition rate is greater than 85%). The “Activity level (growth inhibition rate) Setaria viridis” value in assay [6] was 5 (Level 5: the growth inhibition rate is greater than 85%).

Regarding `C#CCSC(=O)C(C)Oc1nc(F)c(Cl)c(N)c1Cl` (stereo not drawn) [Compound 90], in assay [1], the “Activity level (growth inhibition rate) Abutilon theophrasti” value is listed as 5 (Level 5: the growth inhibition rate is greater than 85%). Also, the “Activity level (growth inhibition rate) Digitaria sanguinalis” value in assay [2] is recorded as 5 (Level 5: the growth inhibition rate is greater than 85%). The “Activity level (growth inhibition rate) Galium spurium” value in assay [3] is 5 (Level 5: the growth inhibition rate is greater than 85%). Further, in assay [4], the “Activity level (growth inhibition rate) Leptochloa chinensis” value was 5 (Level 5: the growth inhibition rate is greater than 85%). For the same molecule, the “Activity level (growth inhibition rate) Monochoria Vaginalis” value in assay [5] is recorded as 5 (Level 5: the growth inhibition rate is greater than 85%). Also, the “Activity level (growth inhibition rate) Setaria viridis” value in assay [6] is 5 (Level 5: the growth inhibition rate is greater than 85%).

As for `CC(Oc1nc(F)c(Cl)c(N)c1Cl)C(=O)SC/C=C/Cl` (stereo not drawn) [Compound 91], in assay [1], the “Activity level (growth inhibition rate) Abutilon theophrasti” value was 5 (Level 5: the growth inhibition rate is greater than 85%). Besides, the “Activity level (growth inhibition rate) Digitaria sanguinalis” value in assay [2] is 5 (Level 5: the growth inhibition rate is greater than 85%). In addition, the “Activity level (growth inhibition rate) Galium spurium” value in assay [3] is given as 5 (Level 5: the growth inhibition rate is greater than 85%). Besides, in assay [4], the “Activity level (growth inhibition rate) Leptochloa chinensis” value is reported as 5 (Level 5: the growth inhibition rate is greater than 85%). Further, the “Activity level (growth inhibition rate) Monochoria Vaginalis” value in assay [5] is 5 (Level 5: the growth inhibition rate is greater than 85%). For the same molecule, the “Activity level (growth inhibition rate) Setaria viridis” value in assay [6] was 5 (Level 5: the growth inhibition rate is greater than 85%).

`CC(Oc1nc(F)c(Cl)c(N)c1Cl)C(=O)SCC(Cl)=C(Cl)Cl` (stereo not drawn) [Compound 92]: the “Activity level (growth inhibition rate) Abutilon theophrasti” value in assay [1] is given as 5 (Level 5: the growth inhibition rate is greater than 85%). Besides, the “Activity level (growth inhibition rate) Digitaria sanguinalis” value in assay [2] is on record as 5 (Level 5: the growth inhibition rate is greater than 85%). Also, in assay [3], the “Activity level (growth inhibition rate) Galium spurium” value is 5 (Level 5: the growth inhibition rate is greater than 85%). Further, in assay [4], the “Activity level (growth inhibition rate) Leptochloa chinensis” value is 5 (Level 5: the growth inhibition rate is greater than 85%). For the same molecule, the “Activity level (growth inhibition rate) Monochoria Vaginalis” value in assay [5] is 5 (Level 5: the growth inhibition rate is greater than 85%). The “Activity level (growth inhibition rate) Setaria viridis” value in assay [6] was 5 (Level 5: the growth inhibition rate is greater than 85%).

Take `COC(=O)CSC(=O)C(C)Oc1nc(F)c(Cl)c(N)c1Cl` (stereo not drawn) [Compound 93]: the “Activity level (growth inhibition rate) Abutilon theophrasti” value in assay [1] was 5 (Level 5: the growth inhibition rate is greater than 85%). Moreover, the “Activity level (growth inhibition rate) Digitaria sanguinalis” value in assay [2] is 5 (Level 5: the growth inhibition rate is greater than 85%). In addition, in assay [3], the “Activity level (growth inhibition rate) Galium spurium” value is 5 (Level 5: the growth inhibition rate is greater than 85%). For the same molecule, in assay [4], the “Activity level (growth inhibition rate) Leptochloa chinensis” value is recorded as 5 (Level 5: the growth inhibition rate is greater than 85%). For the same molecule, the “Activity level (growth inhibition rate) Monochoria Vaginalis” value in assay [5] is recorded as 5 (Level 5: the growth inhibition rate is greater than 85%). In addition, in assay [6], the “Activity level (growth inhibition rate) Setaria viridis” value is listed as 5 (Level 5: the growth inhibition rate is greater than 85%).
